Entries after “also recorded” stand apart in the source; their conditions may differ.
Assays:
Collagen VI Col6A1 = experiment: Expression of collagen VI alpha 1-chain by dermal fibroblasts (RNA); type: cell-based; conditions: human dermal fibroblasts; Rhamnose 1 mM, Vitamin C 50 μM, alone or associated; D3 or D5 not stated
Experimental: (§1) This example describes the synergic effect of the association of vitamin C with L-rhamnose on the expression of the alpha 1-chain of collagens VI and XII of the extracellular matrix.
(§2) Human dermal fibroblasts (used at the ninth passage) are obtained from mammary or abdominal surgeries. The culture medium implemented is DMEM, supplemented with: • fetal calf serum (FCS), 10% • L-Glutamine, 2 mM (Invitrogen 25030024), • Penicillin (50 UI/mL), streptomycin (50 μg/mL), (Invitrogen 15070063), • Sodium pyruvate (Invitrogen 11360039), and • Non essential amino acids (Invitrogen 11140035).
(§3) Fibroblasts are cultured (D0) in supplemented DMEM medium as described above, incubated at 37° C. znd 5% CO2 in an atmosphere saturated with water. After adhesion of the cells (D1), the culture medium is removed and replaced with medium containing vitamin C, L-rhamnose or their association. The different stimulation conditions (vitamin C 25 μM, 50 μM, Rhamnose 1 mM and the different associations) were performed in triplicate (12 well dish). Studies of the expression of the different collagenes were performed on D3 and D5.
(§4) For each condition and at each time (D3 and D5), the supernatants are removed and the cell lawns are lysed. […]
(§5) RNAs are then quantified in fluorescence according to the Ribogreen protocol (Quan-it, Ribogreen RNA assay kit, invitrogen R11490) and reading with Tecan Safire. […]

Collagen XII Cola12A1 = experiment: Expression of collagen XII alpha 1-chain by dermal fibroblasts (RNA); type: cell-based; conditions: human dermal fibroblasts; Rhamnose 1 mM, Vitamin C 50 μM, alone or associated; D3 or D5 not stated
Experimental: as §1, §2, §3, §4, §5

[1] = tested on: keratinocytes (HaCat line); experiment: Proliferation of keratinocytes in medium deficient in growth factors (Cyquant, Nile red, XTT probes); type: cell-based; conditions: HaCat keratinocytes in medium depleted in growth factors
Experimental: The keratinocytes (HaCat line) are cultured under two conditions: whole defined culture medium (standard condition) and culture medium deficient in growth factors. This deficient medium gives rise to a controlled delay in cell proliferation. Under these conditions, it is then possible to measure the effects of compounds capable of compensating for the deficiency in growth factors of the culture medium and thus of relaunching the cell multiplication and/or of stimulating cell metabolism.
The keratinocyte proliferation is measured by means of three markers on the same cell population: the level of DNA, which is proportional to the number of cells (Cyquant probe), the level of constituent polar lipids of cell membranes (Nile red probe) and the mitochondrial respiration, which reflects the general cell metabolism (XTT probe).

type I procollagen = experiment: Synthesis of procollagen 1 in reconstructed skin (indirect immunofluorescence); type: cell-based, human

Structure (SMILES) | intensity of the biosynthesis of Collagen VI (Col6A1) compared to the control that is at 100 (Collagen VI Col6A1) | intensity of the biosynthesis of Collagen XII (Cola12A1) compared to the control that is at 100 (Collagen XII Cola12A1) | keratinocyte proliferation (efficacy) ([1]; 500 μM) | level of DNA (Cyquant) ([1]; 1 mM, vs untreated control) | level of polar lipids (Nile red signal) ([1]; 1 mM, vs untreated control) | mitochondrial respiration (XTT signal) ([1]; 1 mM, vs untreated control) | procollagen 1 synthesis (green fluorescence) vs control skin (type I procollagen; 1 mM, 120 hours) | procollagen 1 synthesis (type I procollagen; 5 mM)
O=C1O[C@H]([C@@H](O)CO)C(O)=C1O [Vitamin C, ascorbic acid] | 154 | 124 | – | – | – | – | – | –
C[C@H](O)[C@H](O)[C@@H](O)[C@@H](O)C=O [Rhamnose, L-rhamnose] | 109 | 115 | already show efficacy | significantly increased | significantly increased | significantly increased | stimulation; also recorded: marked increase | stimulation

Source: patent publication US20100173853A1, “COMBINATION OF MONOSACCHARIDES WITH ASCORBIC ACID AND USE THEREOF” (L'OREAL, priority 2008, published 2010)
